Assay results reported in patent US12344878B2, “Artificial organelles for enzymatic cofactor reduction” (priority 2020, dated 2025).
Where two headings read alike, the source gives them in different places.

Assays:
[1] = test system: T1, CMI:PSII proteoliposomes; assay: Proton gradient (ACMA signal) of CMI:PSII proteoliposomes; format: biochemical, E. coli (CMI), Synechocystis sp. PCC6803 (PSII); conditions: 100 μM DCMU
T1 construct: made in house; host or cells: CMI from E. coli strain ANN0221; PSII from Synechocystis sp; PCC6803 (His-tagged CP47); co-reconstituted in E. coli lipid liposomes
Experimental: (§1) Photoreduction by CMI:PSII proteoliposomes were routinely performed at 28° C. in 5 mM MES, pH 6.5, 50 mM KCl, 5 mM MgCl2 2 mM CaCl2, 25 µL of proteoliposomes were added to 175 μL assay mixture containing 50 μM DQ, 0.2 μM valinomycin, 2.5 μM ACMA; and for decoupling and inhibition assays: 5 μM CCCP and 100 μM DCMU, respectively. The potassium ionophore, valinomycin, was added to collapse the electrical component of the PMF and generate a higher ΔpH. Without being bound by any theory, the reverse electron transfer activity of CMI is believed to be more dependent on the proton component of the […] than the electrical component of the […]. Saturating white light >2200 μmol photons m^−2 s^−1 was provided by a 100 W Mercury lamp. The light was passed through a 2 L water bath. The reaction was monitored using Flexstation 3 (Molecular Devices, Inc.), NADH concentration was monitored by fluorescence spectroscopy (λexictation=340 nm, λemission=455 nm), while the proton gradient generation was determined by the change in ACMA signal (λexictation=410 nm, λemission=480 nm).

[2] = test system: T1, CMI:PSII proteoliposomes; assay: NAD+ photoreduction assay of CMI:PSII proteoliposomes (NADH fluorescence); format: biochemical, E. coli (CMI), Synechocystis sp. PCC6803 (PSII); conditions: for Max Rate NAD^+ Photoreduction: 4PSII:1CMI proteoliposomes; for Sum NADH: production plus remaining
Experimental: as §1

[3] = target: T2, Photosystem II (PSII) (Synechocystis sp., UniProt P09192+P16033); assay: Oxygen evolution assay (Clarke-type electrode); format: biochemical, Synechocystis sp. PCC6803
T2 construct: made in house; host or cells: Synechocystis sp; PCC6803 strain with His-tagged CP47; thylakoid membranes
Experimental: Oxygen evolution assays were performed using 50 mM MES, pH 6.5, 10 mM NaCl, 5 mM MgCl2, 20 mM CaCl2 using a Clarke-type electrode (Hansatech Instruments, Ltd.). 2 mM ferricyanide and either 300 μM 2,5-dicholor-1,4-benzoquinone (DCBQ) or 50 μM DQ was added as electron acceptor with […] of ChlA of the sample to a final volume of 1.5 mL. The reaction took place at 28° C. and was initiated by red light at 2800 μmol s^−1 m^−2.

[4] = target: T3, Respiratory Complex I (CMI, NADH:ubiquinone oxidoreductase) (Escherichia coli, UniProt P0AFC7+P0AFD4+P31979+P33599); assay: Complex I proton pumping (ACMA quenching) in CMI proteoliposomes; format: biochemical, E. coli
T3 construct: made in house; host or cells: E. coli overexpression strain ANN0221
Experimental: (§2) Complex I NADH:DQ oxidoreductase and proton pumping activity were measured simultaneously using a Flexstation 3 (Molecular Devices, Inc.). NADH:DQ oxidoreductase activity was monitored through NADH oxidation by fluorescence spectroscopy (λexictation=340 nm, λemission=455 nm), while proton gradient generation was determined by quenching of ACMA (λexictation=410 nm, λemission=480 nm). The assay was conducted at 28° C. in the corresponding buffer, 25 μL of proteoliposomes were added to 175 μL assay mixture containing 100 μM DQ, 200 μM NADH, 0.2 μM valinomycin, 2.5 μM ACMA and for decoupling and inhibition assays 5 μM CCCP (carbonyl cyanide 3-chlorophenylhydrazone) and 50 μM Piericidin A, respectively. The sample was incubated for 5 min prior to reaction initiation by addition of NADH. When conducting inhibition assays proteoliposomes were incubated for 5 min with Piericidin A before the addition of DQ.

[5] = target: (+)CMI-(+)bR proteoliposomes (Escherichia coli, UniProt P0AFC7+P0AFD4+P31979+P33599); format: biochemical, E. coli (CMI), H. salinarum (bR)
Experimental: as §1
(§3) Liposome preparation, enzyme reconstitution, NAD^+ photoreduction, and proton pumping assays were performed as described above.
In this study, an engineered artificial organelle capable of photoreduction of NAD^+ was created by vectorially integrating bR from H. salinarum and CMI from E. coli into proteoliposomes. The power source for this system is light which activates the proton translocation by bR. As a result, accumulation of H^+ within the lumen creates a proton motive force (PMF). The PMF is requisite to diminish the thermodynamic gap of the standard redox potentials between NADH/NAD^+ and QH2/Q. Reducing the thermodynamic barrier enables CMI to perform reverse electron transfer (RET) from QH2 to NAD^+ [10, 46].
The experiments were initially conducted to determine whether the (+)CMI-(+)bR proteoliposomes could reduce NAD^+ and find suitable assay conditions.

[6] = test system: bacteriorhodopsin (bR) and CMI proteoliposomes; format: biochemical, H. salinarum (bR), E. coli (CMI); conditions: 0.2 μM valinomycin compared with 0.1 μM
Experimental: as §3
(§4) The pH-sensitive fluorophore 9-amino-6-chloro-2-methoxyacridine (ACMA) was used to conduct proton pumping assays. The rates of ACMA quenching were measured for CMI bR independently. Because of the non-linear relationship between ACMA quenching and ΔpH [54-55], the rate of ACMA quenching and de-quenching were calculated using the linear region of the ACMA signal, between 40-70% of the baseline.

[7] = target: T3, Respiratory Complex I (CMI, NADH:ubiquinone oxidoreductase); format: biochemical, E. coli
Experimental: as §2

[8] = target: T4, bacteriorhodopsin (bR) and CMI proteoliposomes (Escherichia coli, UniProt P0AFC7+P0AFD4+P31979+P33599); format: biochemical, H. salinarum (bR), E. coli (CMI); conditions: 50 μM Piericidin A
T4 construct: Bacteriorhodopsin from H. salinarum was purified using tangential flow filtration; made in house; host or cells: bR purified from H. salinarum; CMI from E. coli strain ANN0221; co-reconstituted in liposomes
Experimental: as §3, §4

[9] = CMI reconstituted with detergent at 7 mM
[10] = PSII reconstituted with detergent at 7 mM
[11] = CMI reconstituted with detergent at 18 mM
[12] = CMI reconstituted with detergent at 26 mM
[13] = CMI reconstituted with detergent at 3.8 mM
[14] = CMI reconstituted with detergent at 1.8 mM

Compound: CN(C)C(=O)Nc1ccc(Cl)c(Cl)c1 [DCMU, 3-(3,4-dicholorophenyl)-1,1-dimethylurea]
- ACMA signal increase relative to non-inhibited sample [1]: approximately 60%
- average rate of NADH production after removal of light ([2]; 100 μM DCMU inhibited sample): −170.65±2.26 nmol min^−1 mg CMI^−1
- rate of NADH production of inhibited sample relative to non-inhibited sample ([2]; 100 μM DCMU, illumination minus post illumination rates): 39.05%±7.64
- maximum rate of NADH production under illumination ([2]; proteoliposomes incubated 5 minutes with 100 μM DCMU): 6.44±24.97 nmol min^−1 mg CMI^−1
- inhibition of isolated PSII ([3]; 100 μM DCMU (FIG. 10)): 70%

Compound: C[C@H](CCC(=O)NCCC[N+](C)(C)CCCS(=O)(=O)[O-])[C@H]1CC[C@H]2[C@@H]3[C@H](O)C[C@@H]4C[C@H](O)CC[C@]4(C)[C@H]3C[C@H](O)[C@]12C [CHAPS, 3-[(3-cholamidopropyl)dimethylammonio]-1-propanesulfonate]
- ACMA Fluorescence decrease ([4]; CMI reconstituted with detergent at 3.0 mM): 0.58%
- ACMA Fluorescence decrease [4, 9]: 74.54%
- O2 Evolution (mean ± S.D.) ([3]; PSII reconstituted with detergent at 3.0 mM): 178.08 ± 9.91 umol O2 hr^−1 ug ChIA
- O2 Evolution (mean ± S.D.) [3, 10]: 509.24 ± 256.84 umol O2 hr^−1 ug ChIA

Compound: N#CC(C#N)=NNc1cccc(Cl)c1 [CCCP, carbonyl cyanide 3-chlorophenylhydrazone]
- change in ACMA fluorescence of CMI proteoliposomes ([4]; incubation with 5 μM CCCP): minimal change in ACMA fluorescence
- response of NADH production [5]: negative and significant response

Compound: CC(C)[C@@H]1NC(=O)[C@H](C)OC(=O)[C@@H](C(C)C)NC(=O)[C@@H](C(C)C)OC(=O)[C@H](C(C)C)NC(=O)[C@H](C)OC(=O)[C@@H](C(C)C)NC(=O)[C@@H](C(C)C)OC(=O)[C@H](C(C)C)NC(=O)[C@H](C)OC(=O)[C@@H](C(C)C)NC(=O)[C@@H](C(C)C)OC1=O [valinomycin]
- ACMA quenching [6]: quenched the ACMA more than 0.1 μM

Compound: CCCCCCCCO[C@@H]1O[C@H](CO)[C@@H](O)[C@H](O)[C@H]1O [OG, n-octyl-β-D-glucoside]
- NADH:DQ oxidoreductase activity [7, 11]: 5.24 umol min^−1 mg CMI^−1
- NADH:DQ oxidoreductase activity [7, 12]: 8.95 umol min^−1 mg CMI^−1
- ACMA Fluorescence decrease [4, 11]: 0.71%
- ACMA Fluorescence decrease [4, 12]: −0.16%
- O2 Evolution (mean ± S.D.) ([3]; PSII reconstituted with detergent at 18 mM): 306.95 ± 44.24 umol O2 hr^−1 ug ChIA
- O2 Evolution (mean ± S.D.) ([3]; PSII reconstituted with detergent at 26 mM): 481.01 ± 192.16 umol O2 hr^−1 ug ChIA

Compound: C/C=C(\C)[C@H](O)[C@H](C)/C=C(C)/C=C/C/C(C)=C/Cc1nc(OC)c(OC)c(O)c1C [Piericidin A]
- inhibition of NADH:DQ oxidoreductase specific activity of CMI proteoliposomes ([7]; 50 μM Piericidin A): > 95%
- inhibition of NADH oxidation by CMI ([7]; 50 μM Piericidin A, (+)CMI-(−)bR proteoliposomes (FIG. 13)): > 95%
- effect on NAD^+ reductase rates ([5]; 50 μM Piericidin A): significantly increased
- NAD^+ reductase rate relative to samples with no Piericidin A ([5]; 50 μM Piericidin A, 0.0 mM DTT): ~3 times
- NAD^+ reductase rate relative to samples with no Piericidin A ([5]; 50 μM Piericidin A, 1.0 mM DTT): ~4 times
- reduction of the rate of NADH produced ([5]; after 35 minutes, Piericidin A present): 95%
- rate of ACMA signal increase during photoreduction ([8]; 0.0 mM DTT): 3.96±0.64 ACMA % min^−1
- rate of ACMA signal increase during photoreduction ([8]; 1.0 mM DTT): 3.15±0.94 ACMA % min^−1

Compound: NC(=O)C1=CN([C@@H]2O[C@H](COP(=O)(O)OP(=O)(O)OC[C@H]3O[C@@H](n4cnc5c(N)ncnc54)[C@H](O)[C@@H]3O)[C@@H](O)[C@H]2O)C=CC1 [NADH]
- Max Production of NADH ([2]; 100 μM NADH injected): 8.04 µM
- NADH remaining prior to photoreduction ([2]; 100 μM NADH injected): 2.05 µM
- Max Rate NAD^+ Photoreduction ([2]; 100 μM NADH injected): 132.30 nmol min^−1 mg CMI^−1
- Sum NADH ([2]; 100 μM NADH injected): 10.08 µM
- Max Production of NADH ([2]; 200 μM NADH injected): 9.10 µM
- NADH remaining prior to photoreduction ([2]; 200 μM NADH injected): 4.10 µM
- Max Rate NAD^+ Photoreduction ([2]; 200 μM NADH injected): 213.32 nmol min^−1 mg CMI^−1
- Sum NADH ([2]; 200 μM NADH injected): 13.20 µM
- Max Production of NADH ([2]; 300 μM NADH injected): 6.48 µM
- NADH remaining prior to photoreduction ([2]; 300 μM NADH injected): 8.19 µM
- Max Rate NAD^+ Photoreduction ([2]; 300 μM NADH injected): 178.71 nmol min^−1 mg CMI^−1
- Sum NADH ([2]; 300 μM NADH injected): 14.67 µM
- Max Production of NADH ([2]; 400 μM NADH injected): 1.53 µM
- NADH remaining prior to photoreduction ([2]; 400 μM NADH injected): 13.41 µM
- Max Rate NAD^+ Photoreduction ([2]; 400 μM NADH injected): 57.45 nmol min^−1 mg CMI^−1
- Sum NADH ([2]; 400 μM NADH injected): 14.94 µM

Compound: CCCCCCCCCCCCO[C@@H]1O[C@H](CO)[C@@H](O[C@H]2O[C@H](CO)[C@@H](O)[C@H](O)[C@H]2O)[C@H](O)[C@H]1O [DDM, n-dodecyl-β-D-maltopyranoside]
- NADH:DQ oxidoreductase activity [7, 13]: 13.43 umol min^−1 mg CMI^−1
- NADH:DQ oxidoreductase activity [7, 9]: 0.76 umol min^−1 mg CMI^−1
- ACMA Fluorescence decrease [4, 13]: 1.46%
- ACMA Fluorescence decrease [4, 9]: 0.32%
- O2 Evolution (mean ± S.D.) ([3]; PSII reconstituted with detergent at 3.8 mM): 565.87 ± 25.19 umol O2 hr^−1 ug ChIA
- O2 Evolution (mean ± S.D.) ([3]; PSII reconstituted with detergent at 6.8 mM): 396.55 ± 69.76 umol O2 hr^−1 ug ChIA

Compound: polyethylene glycol p-(1,1,3,3-tetramethylbutyl)-phenyl ether [Triton X-100 ™]
- NADH:DQ oxidoreductase activity [7, 14]: −0.00 umol min^−1 mg CMI^−1
- NADH:DQ oxidoreductase activity [7, 9]: 9.05 umol min^−1 mg CMI^−1
- ACMA Fluorescence decrease [4, 14]: −2.75%
- ACMA Fluorescence decrease [4, 9]: −4.90%
- O2 Evolution (mean ± S.D.) ([3]; PSII reconstituted with detergent at 1.8 mM): 530.72 ± 2.53 umol O2 hr^−1 ug ChIA
- O2 Evolution (mean ± S.D.) [3, 10]: 218.69 ± 67.01 umol O2 hr^−1 ug ChIA
